Data reported in ChEMBL document CHEMBL3217472, “Identification of novel urea derivatives as PTP1B inhibitors: synthesis, biological evaluation and structureactivity relationships” (Medchemcomm, 2013).
Calls of active or inactive are those of the source. The rule behind the calls is not given here.

Key:
[1] = target: T1, Tyrosine-protein phosphatase non-receptor type 1 (Homo sapiens) (UniProt P18031); test: Inhibition of human recombinant PTP1B using phosphopeptide as substrate at 10 uM after 30 mins by malachite green assay relative to control
T1 sequence (whole entry): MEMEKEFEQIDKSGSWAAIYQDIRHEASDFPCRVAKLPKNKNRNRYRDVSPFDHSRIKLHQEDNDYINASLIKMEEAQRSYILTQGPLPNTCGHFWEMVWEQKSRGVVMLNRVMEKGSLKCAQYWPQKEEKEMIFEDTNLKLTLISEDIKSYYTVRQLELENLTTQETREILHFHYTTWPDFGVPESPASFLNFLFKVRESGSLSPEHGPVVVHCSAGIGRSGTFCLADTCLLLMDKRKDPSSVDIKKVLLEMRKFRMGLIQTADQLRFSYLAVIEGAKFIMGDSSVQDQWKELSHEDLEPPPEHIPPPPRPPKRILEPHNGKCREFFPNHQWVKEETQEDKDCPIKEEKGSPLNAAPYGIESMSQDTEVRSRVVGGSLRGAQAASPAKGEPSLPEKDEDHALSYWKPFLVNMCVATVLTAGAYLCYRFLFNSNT

Rattus norvegicus [2] = test: Antihyperglycemic activity in streptozotocin-induced Sprague-Dawley albino rat diabetic model assessed as reduction of blood glucose AUC (0 to 24 hrs) at 100 mg/kg, po by glucometer relative to control; type: functional; parameters: scale not given: the % may be the effect or the level left
Rattus norvegicus [3] = test: Antihyperglycemic activity in streptozotocin-induced Sprague-Dawley albino rat diabetic model assessed as reduction of blood glucose AUC (0 to 5 hrs) at 100 mg/kg, po by glucometer relative to control; type: functional; parameters: scale not given: the % may be the effect or the level left
[4] = target: T2, Tyrosine-protein phosphatase non-receptor type 1 (Homo sapiens, UniProt P18031); test: Inhibition of human recombinant PTP1B using phosphopeptide as substrate after 30 mins by malachite green assay
T2 sequence (P18031 whole entry): T1 sequence (whole entry)

Mus musculus [5] = test: Antihyperglycemic activity in C57BL/Ks db/db mouse assessed as reduction of blood glucose level at 30 mg/kg measured from day 8 to day 14; type: functional, organism-based; parameters: dose 30 mg/kg
Mus musculus [6] = test: In vivo inhibition of PTP1B in skeletal muscle of C57BL/Ks db/db mouse assessed as upregulation of p-IRSI protein expression at 30 mg/kg, po by Western blot analysis relative to vehicle-treated sham control; type: functional, Muscle tissue
Mus musculus [7] = test: Antidiabetic activity in C57BL/Ks db/db mouse assessed as improvement of HOMA index at 30 mg/kg relative to vehicle-treated sham control; type: functional
Mus musculus [8] = test: Antidiabetic activity in C57BL/Ks db/db mouse assessed as restoration of altered insulin level in serum at 30 mg/kg relative to vehicle-treated sham control; type: functional
Mus musculus [9] = test: Antidiabetic activity in C57BL/Ks db/db mouse assessed as normalization of fasting blood glucose level at 30 mg/kg relative to vehicle-treated sham control; type: functional
Mus musculus [10] = test: Antidyslipidemic activity in C57BL/Ks db/db mouse assessed as increase in serum HDL-cholesterol level at 30 mg/kg measured on day 10 to 15 relative to vehicle-treated sham control; type: functional
Mus musculus [11] = test: Antidyslipidemic activity in C57BL/Ks db/db mouse assessed as reduction of serum cholesterol level at 30 mg/kg measured on day 10 to 15 relative to vehicle-treated sham control; type: functional
Mus musculus [12] = test: Antidyslipidemic activity in C57BL/Ks db/db mouse assessed as reduction of serum triglyceride level at 30 mg/kg measured on day 10 to 15 relative to vehicle-treated sham control; type: functional
Mus musculus [13] = test: Antihyperglycemic activity in C57BL/Ks db/db mouse assessed as reduction of blood glucose AUC (0 to 120 mins) at 30 mg/kg measured on day 15 by OGTT relative to vehicle-treated sham control; type: functional
Mus musculus [14] = test: Antihyperglycemic activity in C57BL/Ks db/db mouse assessed as reduction of blood glucose AUC (0 to 120 mins) at 30 mg/kg measured on day 10 by OGTT relative to vehicle-treated sham control; type: functional
[15] = target: T2, Tyrosine-protein phosphatase non-receptor type 1; test: Competitive inhibition of human recombinant PTP1B using IR5 as substrate by Lineweaver-Burk plot analysis
Mus musculus [16] = test: Antihyperglycemic activity in C57BL/Ks db/db mouse assessed as reduction of blood glucose level at 10 mg/kg measured from day 6 to day 14; type: functional, organism-based; parameters: dose 10 mg/kg
Mus musculus [17] = test: In vivo inhibition of PTP1B in skeletal muscle of C57BL/Ks db/db mouse assessed as upregulation of p-IRSI protein expression at 10 mg/kg, po by Western blot analysis relative to vehicle-treated sham control; type: functional, Muscle tissue
Mus musculus [18] = test: Antidiabetic activity in C57BL/Ks db/db mouse assessed as improvement of HOMA index at 10 mg/kg relative to vehicle-treated sham control; type: functional
Mus musculus [19] = test: Antidiabetic activity in C57BL/Ks db/db mouse assessed as restoration of altered insulin level in serum at 10 mg/kg relative to vehicle-treated sham control; type: functional
Mus musculus [20] = test: Antidiabetic activity in C57BL/Ks db/db mouse assessed as normalization of fasting blood glucose level at 10 mg/kg relative to vehicle-treated sham control; type: functional
Mus musculus [21] = test: Antidyslipidemic activity in C57BL/Ks db/db mouse assessed as increase in serum HDL-cholesterol level at 10 mg/kg measured on day 10 to 15 relative to vehicle-treated sham control; type: functional
Mus musculus [22] = test: Antidyslipidemic activity in C57BL/Ks db/db mouse assessed as reduction of serum cholesterol level at 10 mg/kg measured on day 10 to 15 relative to vehicle-treated sham control; type: functional
Mus musculus [23] = test: Antidyslipidemic activity in C57BL/Ks db/db mouse assessed as reduction of serum triglyceride level at 10 mg/kg measured on day 10 to 15 relative to vehicle-treated sham control; type: functional
Mus musculus [24] = test: Antihyperglycemic activity in C57BL/Ks db/db mouse assessed as reduction of blood glucose AUC (0 to 120 mins) at 10 mg/kg, po measured on day 15 by OGTT relative to vehicle-treated sham control; type: functional
Mus musculus [25] = test: Antihyperglycemic activity in C57BL/Ks db/db mouse assessed as reduction of blood glucose AUC (0 to 120 mins) at 10 mg/kg measured on day 10 by OGTT relative to vehicle-treated sham control; type: functional

O=C(NCc1cccc([N+](=O)[O-])c1)NCc1cccc(-c2cccc([N+](=O)[O-])c2)n1
inhibition [1]: 40%

COc1cc(Cl)c(CNC(=O)NCc2cccc([N+](=O)[O-])c2)c(Cl)c1OC
Activity (Rattus norvegicus [2]): 2.54% | Activity (Rattus norvegicus [3]): 7.26% | IC50 [4]: 9.91 µM | inhibition [1]: 56.6%

COc1cc(CNC(=O)NCc2cccc([N+](=O)[O-])c2)cc(OC)c1
inhibition [1]: 2.81%

O=C(NCc1cccc([N+](=O)[O-])c1)NCc1ccccc1[N+](=O)[O-]
Activity (Mus musculus [5]): Active | fold change (FC) (Mus musculus [6]): 1.25 | Efficacy (Mus musculus [7]): 69.7% | Efficacy (Mus musculus [8]): 34.5% | Efficacy (Mus musculus [9]): 52.3% | Efficacy (Mus musculus [10]): 46.8% | Efficacy (Mus musculus [11]): 16.3% | Efficacy (Mus musculus [12]): 8.9% | Efficacy (Mus musculus [13]): 35.9% | Efficacy (Mus musculus [14]): 24.1% | Activity (Rattus norvegicus [2]): 21.7% | Activity (Rattus norvegicus [3]): 20.4% | Ki [15]: 7.88 µM | IC50 [4]: 7.47 µM | inhibition [1]: 79.4%

O=C(NCc1cccc(Cl)c1)NCc1cccc([N+](=O)[O-])c1
inhibition [1]: 32.9%

COc1ccc(CNC(=O)NCc2cccc([N+](=O)[O-])c2)cc1
inhibition [1]: 2.85%

COc1cc(OC)c(CNC(=O)NCc2ccccc2)c(OC)c1
Activity (Rattus norvegicus [2]): 18.6% | Activity (Rattus norvegicus [3]): 16.1% | IC50 [4]: 7.6 µM | inhibition [1]: 78.8%

Cc1ccc(C(=O)Nc2ccc(S(=O)(=O)O)c3cc(S(=O)(=O)O)cc(S(=O)(=O)O)c23)cc1NC(=O)c1cccc(NC(=O)Nc2cccc(C(=O)Nc3cc(C(=O)Nc4ccc(S(=O)(=O)O)c5cc(S(=O)(=O)O)cc(S(=O)(=O)O)c45)ccc3C)c2)c1
inhibition [1]: 60%

O=C(NCc1ccccc1)NCc1c[nH]c2ccc(Cl)cc12
inhibition [1]: 19%

O=C(NCc1ccccc1)NCc1ccc(-c2ccc([N+](=O)[O-])cc2)o1
Activity (Rattus norvegicus [2]): 18.8% | Activity (Rattus norvegicus [3]): 12.5% | inhibition [1]: 21.4%

CN(C)C(=N)NC(=N)N [METFORMIN]
Activity (Rattus norvegicus [2]): 23.3% | Activity (Rattus norvegicus [3]): 21%

O=C(NCc1cccc([N+](=O)[O-])c1)NCc1ccco1
inhibition [1]: 46.8%

CC(=O)Nc1ccc(CNC(=O)NCc2ccccc2)cc1
Activity (Rattus norvegicus [2]): 14.8% | Activity (Rattus norvegicus [3]): 14.2% | IC50 [4]: 9.39 µM | inhibition [1]: 60.9%

COc1cc(CNC(=O)NCc2ccccc2)ccc1O
inhibition [1]: 14.9%

O=C(NCc1ccccc1)NCc1ccc([N+](=O)[O-])cc1
inhibition [1]: 0.9%

O=C(NCc1cccc([N+](=O)[O-])c1)NCc1ccc(-c2ccc([N+](=O)[O-])cc2)o1
Activity (Rattus norvegicus [2]): 20% | Activity (Rattus norvegicus [3]): 18.4% | IC50 [4]: 8.06 µM | inhibition [1]: 68.4%

COc1cc(CNC(=O)NCc2cccc([N+](=O)[O-])c2)cc(OC)c1OC
inhibition [1]: 7.5%

CC(C)(C)c1cc(CNC(=O)NCc2ccccc2)c(O)c(C(C)(C)C)c1
inhibition [1]: 18.9%

O=C(NCc1ccccc1)NCc1ccccc1[N+](=O)[O-]
inhibition [1]: 2.1%

O=C(NCc1ccccc1)NCc1cccc([N+](=O)[O-])c1
inhibition [1]: 2.4%

COc1cc(Cl)c(CNC(=O)NCc2ccccc2)c(Cl)c1OC
inhibition [1]: 13.7%

CCc1ccc(CCOc2ccc(CC3SC(=O)NC3=O)cc2)nc1 (stereo unspecified) [PIOGLITAZONE]
Activity (Mus musculus [16]): Active | fold change (FC) (Mus musculus [17]): 1.37 | Efficacy (Mus musculus [18]): 70.3% | Efficacy (Mus musculus [19]): 46.1% | Efficacy (Mus musculus [20]): 64.7% | Efficacy (Mus musculus [21]): 11.1% | Efficacy (Mus musculus [22]): 9.17% | Efficacy (Mus musculus [23]): 12.6% | Efficacy (Mus musculus [24]): 52.9% | Efficacy (Mus musculus [25]): 40.8%

O=C(NCc1ccccc1)NCc1ccsc1
inhibition [1]: 31.2%
